{"source": "patent US20050154032A1", "about": "“Methods of using zonisamide as an adjunctive therapy for partial seizures” (Eisai Co., Ltd, priority 2004, published 2005)", "key": {"[1]": {"conditions": "cited from earlier work; for hyperammonemia as adverse event: literature"}, "[2]": {"conditions": "human, in vivo", "source_text": "The pharmacovigilance data that were collected, reviewed and analyzed provided the following information in respect of the incidence of hyperammonemia. A total of 4 cases fulfilled the criteria of potential hyperammonemia cases. These cases were reviewed in detail for evaluation of possible safety signals. Two US cases were reported as either high ammonia levels or increased ammonia. Two Japanese cases were reported as hyperammonemia.\nOf these, two (2) cases (both ZON1000262 and ZON1000346) had strong confounding factors and seem to-be unrelated to zonisamide, but the possibility of zonisamide involvement cannot be completely excluded. The two cases of hyperammonemia originated from Japan and both involved adult patients. Both cases were serious and described as life-threatening. […]\nEstimates of exposure, based upon retail and mail order prescriptions, indicate that the number of unique patients taking zonisamide capsules in the U.S. is about 37,276 (total prescriptions per year/average number of prescriptions per patient per year less a calculated percentage decrease based on estimated annual dropouts) in the time between approval in 2000 and December 2002. […] Similarly, the incidences of NMS estimated herein are unlikely to be higher than calculated. Based on the exposure data and number of hyperammonemia cases, the incidence of hyperammonemia is calculated to be about […]."}, "[3]": {"test_system": "sodium channels", "conditions": "in vitro; cited from earlier work"}, "[4]": {"test_system": "T-type Ca^2+ currents", "conditions": "in vitro; cited from earlier work"}, "[5]": {"test_system": "GABA/benzodiazepine receptor ionophore complex", "conditions": "in vitro; cited from earlier work"}, "[6]": {"test_system": "cultured mouse spinal cord neurons", "conditions": "10-30 μg/mL; cited from earlier work"}, "[7]": {"test_system": "rat hippocampal slices", "conditions": "10-30 μg/mL; cited from earlier work"}, "[8]": {"test_system": "dopaminergic and serotonergic neurotransmission", "conditions": "in vivo microdialysis; cited from earlier work"}, "[9]": {"conditions": "upon reaching a stable dose or following dosage adjustment; cited from earlier work"}, "[10]": {"test_system": "hepatic enzyme", "conditions": "cited from earlier work"}, "[11]": {"test_system": "carbonic anhydrase", "conditions": "fraction of acetazolamide inhibition; cited from earlier work"}}}
{"molecule": "NC(=O)N1c2ccccc2C=Cc2ccccc21", "note": "[carbamazepine]", "values": [{"measurement": "hyperammonemia as adverse event", "setting": "[1]", "value": "known to cause hyperammonemia"}]}
{"molecule": "NS(=O)(=O)Cc1noc2ccccc12", "note": "[zonisamide, 1,2-benzisoxazole-3-methanesulfonamide]", "values": [{"measurement": "cases fulfilling the criteria of potential hyperammonemia cases", "setting": "[2]", "value": 4, "unit": "cases"}, {"measurement": "incidence of hyperammonemia", "setting": "[2]", "value": "about 1:1,222,453"}, {"measurement": "effect on sodium channels", "setting": "[3]", "value": "blocks sodium channels"}, {"measurement": "effect on voltage-dependent, transient inward currents (T-type Ca2+ currents)", "setting": "[4]", "value": "reduces"}, {"measurement": "binding to GABA/benzodiazepine receptor ionophore complex", "setting": "[5]", "value": "binds to the GABA/benzodiazepine receptor ionophore complex in an allosteric fashion"}, {"measurement": "postsynaptic GABA or glutamate responses", "setting": "[6]", "value": "without affecting"}, {"measurement": "synaptically-driven electrical activity", "setting": "[6]", "value": "suppresses"}, {"measurement": "neuronal or glial uptake of [3H]-GABA", "setting": "[7]", "value": "without affecting"}, {"measurement": "dopaminergic and serotonergic neurotransmission", "setting": "[8]", "value": "facilitates"}, {"measurement": "time required to achieve steady-state levels", "setting": "[9]", "value": "up to two weeks"}, {"measurement": "hepatic enzyme induction", "setting": "[10]", "value": "not known to be a hepatic enzyme inducer"}, {"measurement": "carbonic anhydrase inhibition compared to acetazolamide", "setting": "[11]", "value": "1/50"}]}
{"molecule": "CCCC(CCC)C(=O)O", "note": "[valproate]", "values": [{"measurement": "hyperammonemia as adverse event", "setting": "[1]", "value": "known to cause hyperammonemia"}, {"measurement": "cases of hyperammonemia associated with the drug", "setting": "[1]; since 1979 (O'Neil et al. 2002)", "value": "more than 30 cases"}]}
